In US9650340B2, “5-fluoro-N-(pyridin-2-yl)pyridin-2-amine derivatives containing a sulfoximine group” (BAYER PHARMA AKTIENGESELLSCHAFT, priority 2012, dated 2017) one finds IC50 and solubility data, which are given here for one compound.

In brackets after ≈: the same amount, converted by molar mass.

As a reminder, the solubility is how much of the substance goes into solution per volume.

For data set [1], the target named is T1, CDK9/CycT1 (Homo sapiens, UniProt P50750).
T1 construct: Recombinant full-length His-tagged human CDK9 and CycT1; His; purchased Invitrogen PV4131; host or cells: insect cells
T1 sequence (P50750 whole entry): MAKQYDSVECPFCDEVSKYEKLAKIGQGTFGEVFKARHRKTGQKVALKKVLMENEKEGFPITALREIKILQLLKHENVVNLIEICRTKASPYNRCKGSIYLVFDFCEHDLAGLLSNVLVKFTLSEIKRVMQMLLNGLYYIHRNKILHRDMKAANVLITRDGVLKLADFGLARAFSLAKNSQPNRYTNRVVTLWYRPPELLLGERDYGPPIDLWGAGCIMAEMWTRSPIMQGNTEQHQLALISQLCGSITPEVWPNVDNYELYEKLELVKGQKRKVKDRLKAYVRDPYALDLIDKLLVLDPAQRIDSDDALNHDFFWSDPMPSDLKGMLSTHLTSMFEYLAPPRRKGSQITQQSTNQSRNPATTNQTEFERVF
T1 sequence (O60563 whole entry partner): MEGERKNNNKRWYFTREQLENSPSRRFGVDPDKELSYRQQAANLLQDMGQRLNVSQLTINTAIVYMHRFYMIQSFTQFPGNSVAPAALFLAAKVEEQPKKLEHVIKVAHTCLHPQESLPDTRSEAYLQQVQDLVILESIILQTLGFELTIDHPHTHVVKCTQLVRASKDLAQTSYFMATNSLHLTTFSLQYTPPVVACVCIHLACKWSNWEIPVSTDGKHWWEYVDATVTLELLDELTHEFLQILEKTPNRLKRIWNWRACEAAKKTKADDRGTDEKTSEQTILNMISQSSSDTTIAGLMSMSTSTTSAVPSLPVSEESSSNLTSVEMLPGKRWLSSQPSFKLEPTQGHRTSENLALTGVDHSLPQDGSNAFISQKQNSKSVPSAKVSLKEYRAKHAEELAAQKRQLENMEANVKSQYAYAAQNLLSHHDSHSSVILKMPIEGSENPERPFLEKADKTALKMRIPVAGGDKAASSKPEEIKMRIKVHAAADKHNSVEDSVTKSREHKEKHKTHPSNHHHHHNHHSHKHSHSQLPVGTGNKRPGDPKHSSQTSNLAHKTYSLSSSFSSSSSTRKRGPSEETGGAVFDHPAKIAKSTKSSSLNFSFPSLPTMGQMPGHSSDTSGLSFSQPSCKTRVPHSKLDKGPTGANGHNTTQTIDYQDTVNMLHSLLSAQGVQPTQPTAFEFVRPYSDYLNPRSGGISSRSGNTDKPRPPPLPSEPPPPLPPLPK
Kind of data set: CDK9/CycT1 kinase assay (TR-FRET, 10 μM ATP). Conditions: Method 1a. In kind it is biochemical. An outline of the steps:
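Full-length His-tagged human CDK9/CycT1 from insect cells, biotinylated peptide substrate, buffer 50 mM Tris/HCl pH 8.0 with 10 mM MgCl2, 1.0 mM DTT. Compound pre-bound 15 min at 22° C.; after detection reagents, 1 h at 22° C., then phosphorylated substrate measured by Eu-chelate to streptavidine-XL TR-FRET.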

The test system of data set [2] is HeLa, human cervical tumour cells. Briefly: Proliferation assay, HeLa (crystal violet). Particulars: Homo sapiens, 96 h, 4 days, read-out: Inhibition of HeLa cell proliferation IC50. Type of data set: cell-based. Put shortly:
(§1)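 Adherent lines (HeLa, NCI-H460 at 3,000 cells/well; HeLa-MaTu-ADR at 5,000) treated 4 days with 0.001-10 μM compound, 0.5% DMSO, 10% FCS; crystal violet at 595 nm, normalised to zero-point plate and untreated cells, IC50 by 4-parameter fit. MOLM-13 (5,000 cells/well) exposed 72 h, viability by Cell Titre-Glo.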

For data set [3], the system named is HeLa-MaTu-ADR, multidrug-resistant human cervical carcinoma cells. Briefly: Proliferation assay, HeLa-MaTu-ADR (crystal violet). In kind it is cell-based. Conditions: Homo sapiens, 96 h, 4 days, read-out: Inhibition of HeLa-MaTu-ADR cell proliferation IC50. Put shortly:
as §1

For data set [4], the system named is Caco-2, human colorectal carcinoma cells. Kind of data set: Proliferation assay, Caco-2 (crystal violet). In kind it is cell-based. Particulars: Homo sapiens, Caco-2, 96 h, Caco-2, 4 days; read-out: Inhibition of Caco-2 cell proliferation IC50.
The test system of data set [5] is A2780, human ovarian carcinoma cells. Briefly: Proliferation assay, A2780 (crystal violet). In kind it is cell-based. Conditions: Homo sapiens, A2780, 96 h, A2780, 4 days; read-out: Inhibition of A2780 cell proliferation IC50. As for the experimental part: (§2) Cultivated tumour cells (HeLa, human cervical tumour cells, ATCC CCL-2; NCI-H460, human non-small cell lung carcinoma cells, ATCC HTB-177; A2780, human ovarian carcinoma cells, ECACC #93112519; DU 145, hormone-independent human prostate carcinoma cells, ATCC HTB-81; HeLa-MaTu-ADR, multidrug-resistant human cervical carcinoma cells, EPO-GmbH Berlin; Caco-2, human colorectal carcinoma cells, ATCC HTB-37; B16F10, mouse melanoma cells, ATCC CRL-6475) were plated at a density of 5,000 cells/well (DU145, HeLa-MaTu-ADR), 3,000 cells/well (NCI-H460, HeLa), 2,500 cells/well (A2780), 1,500 cells/well (Caco-2), or 1,000 cells/well (B16F10) in a 96-well multititer plate in 200 μL of their respective growth medium supplemented 10% fetal calf serum. After 24 hours, the cells of one plate (zero-point plate) were stained with crystal violet (see below), while the medium of the other plates was replaced by fresh culture medium (200 μl), to which the test substances were added in various concentrations (0 μM, as well as in the range of 0.001-10 μM; the final concentration of the solvent dimethyl sulfoxide was 0.5%). The cells were incubated for 4 days in the presence of test substances. Cell proliferation was determined by staining the cells with crystal violet: the cells were fixed by adding 20 μl/measuring point of an 11% glutaric aldehyde solution for 15 minutes at room temperature. After three washing cycles of the fixed cells with water, the plates were dried at room temperature. The cells were stained by adding 100 μl/measuring point of a 0.1% crystal violet solution (pH 3.0). After three washing cycles of the stained cells with water, the plates were dried at room temperature. The dye was dissolved by adding 100 μl/measuring point of a 10% acetic acid solution. The extinction was determined by photometry at a wavelength of 595 nm. The change of cell number, in percent, was calculated by normalization of the measured values to the extinction values of the zero-point plate (=0%) and the extinction of the untreated (0 μm) cells (=100%). The IC50 values (inhibitory concentration at 50% of maximal effect) were determined by means of a 4 parameter fit. Non-adherent MOLM-13 human acute myeloid leukemia cells (DSMZ ACC 554) were seeded at a density of 5,000 cells/well in a 96-well multititer plate in 100 μL of growth medium supplemented 10% fetal calf serum. After 24 hours, cell viability of one plate (zero-point plate) was determined with the Cell Titre-Glo Luminescent Cell Viability Assay (Promega), while 50 μL of test compound containing medium was added to the wells of the other plates (final concentrations in the range of 0.001-10 μM and DMSO controls; the final concentration of the solvent dimethyl sulfoxide was 0.5%). Cell viability was assessed after 72-hour exposure with the Cell Titre-Glo Luminescent Cell Viability Assay (Promega).

Data set [6] relates to MOLM-13 human acute myeloid leukemia cells. Kind of data set: Proliferation assay, MOLM-13 (Cell Titre-Glo). Conditions: Homo sapiens, MOLM-13, 72 h, MOLM-13, 72-hour exposure; read-out: Inhibition of MOLM-13 cell proliferation IC50. Type of data set: cell-based. As for the experimental part:
as §2

Data set [7] can be described thus: Equilibrium shake flask solubility assay, thermodynamic solubility in citrate buffer pH 4. Particulars: citrate buffer, pH 4, aqueous buffer, thermodynamic from solid, citrate buffer pH 4, 24 h, room temperature; read-out: Solubility in aqueous Citrate buffer pH4. Type of data set: physicochemical. As for the experimental part: 4b) Thermodynamic Solubility in Citrate Buffer pH 4
Thermodynamic solubility was determined by an equilibrium shake flask method [Literature: Edward H. Kerns and Li Di (2008) Solubility Methods in: Drug-like Properties: Concepts, Structure Design and Methods, p276-286. Burlington, Mass.: Academic Press].
A saturated solution of the drug was prepared and the solution was mixed for 24 h to ensure that equilibrium has been reached. The solution was centrifuged to remove the insoluble fraction and the concentration of the compound in solution was determined using a standard calibration curve.
To prepare the sample, 1.5 mg solid compound was weighed in a 4 ml glass vial. 1 ml Citrate buffer pH 4 was added. The suspension was put on a stirrer and mixed for 24 hrs at room temperature. The solution was centrifuged afterwards. To prepare the sample for the standard calibration, 0.6 mg solid sample was dissolved in 19 ml acetonitrile/water 1:1. After sonification the solution was filled up with acetonitrile/water 1:1 to 20 ml.
Sample and standards were quantified by HPLC with UV-detection. For each sample two injection volumes (5 and 50 μl) in triplicates were made. Three injection volumes (5 μl, 10 μl and 20 μl) were made for the standard.
The areas of sample- and standard injections as well as the calculation of the solubility value (in mg/l) were determined by using HPLC software (Waters Empower 2 FR).

In the case of `COc1cc(F)ccc1-c1cc(Nc2cc(CS(=N)(=O)CCO)ccn2)ncc1F` (racemic) [Example 8, (rac)-2-{S-[(2-{[5-Fluoro-4-(4-fluoro-2-methoxyphenyl)pyridin-2-yl]amino}pyridin-4-yl)methyl]sulfonimidoyl}ethanol], the IC50 was determined as 13 nM in data set [1]; 140 nM in data set [2]; 200 nM in data set [3]; 160 nM in data set [4]; 45 nM in data set [5]; 55 nM in data set [6]. For the same compound, the solubility at 24 h in data set [7] worked out at 730 µg/mL (≈ 1680 µM).
